Test results published in PMC6884575, “Suppression of FOXM1 activities and breast cancer growth in vitro and in vivo by a new class of compounds” (NPJ Breast Cancer, 2019).

Tests used:
[1] = molecular target: T1, FOXM1 (Homo sapiens, UniProt Q08050); assay: tr-FRET competitive binding assay with Fl-NB-72 probe; parameters: we attached a terbium donor to purified, full length FOXM1 through a streptavidin-biotin linker; conditions: displacement of Fl-NB-72 (100 nM), tr-FRET
T1 sequence (Q08050 1-763): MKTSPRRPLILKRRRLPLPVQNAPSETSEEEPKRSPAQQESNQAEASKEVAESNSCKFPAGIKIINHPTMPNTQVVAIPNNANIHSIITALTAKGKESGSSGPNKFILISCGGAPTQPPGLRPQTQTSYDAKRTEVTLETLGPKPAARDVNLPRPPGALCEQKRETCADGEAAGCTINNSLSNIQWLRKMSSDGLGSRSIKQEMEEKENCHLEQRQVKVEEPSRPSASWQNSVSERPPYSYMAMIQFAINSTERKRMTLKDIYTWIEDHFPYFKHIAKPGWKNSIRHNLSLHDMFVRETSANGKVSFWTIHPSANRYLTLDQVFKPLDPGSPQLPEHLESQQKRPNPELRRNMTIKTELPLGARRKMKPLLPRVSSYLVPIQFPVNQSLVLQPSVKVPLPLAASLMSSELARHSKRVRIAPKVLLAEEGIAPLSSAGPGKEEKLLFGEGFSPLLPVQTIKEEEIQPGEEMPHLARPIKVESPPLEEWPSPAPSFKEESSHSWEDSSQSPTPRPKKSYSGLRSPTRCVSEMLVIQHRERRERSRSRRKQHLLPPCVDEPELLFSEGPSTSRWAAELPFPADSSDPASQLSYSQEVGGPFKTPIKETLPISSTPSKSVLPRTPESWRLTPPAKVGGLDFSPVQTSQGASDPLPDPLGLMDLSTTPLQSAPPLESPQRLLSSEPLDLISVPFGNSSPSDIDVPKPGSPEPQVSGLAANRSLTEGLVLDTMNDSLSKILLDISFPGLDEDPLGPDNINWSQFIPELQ
Description: Competitive binding assays of compound binding to FOXM1 by tr-FRET were done in FRET buffer (20 mM Tris, pH 7.5, 50 mM NaCl, 0.01% NP-40 detergent, 10% glycerol) with 0.3 mg/ml ovalbumin and 0.1 mM butylated hydroxy-anisole added fresh daily. Solutions of the protein, fluorescent probe and compound dilutions were prepared at 3× concentrations, the final dilution taking place as they were mixed together in equal portions on the microtiter plate.
Final concentrations were 10^−5 M to 10^−9 M, with the last point being buffer only, no compound. Fluorescein-NB-72 (Fl-NB- 72) was prepared at 1 mM in DMF and stored at −20 °C. It was diluted into FRET buffer to give 100 nM in the assay. Incubations were done in duplicate on black Molecular Devices 96-well microtiter plates. 5 μl of Fl-NB-72 and 5 μl of the compound dilutions, were mixed together on the plate. To this was added 5 µl biotin-FoxM1 and incubated in the dark at room temperature, for 1 h. […] To correct for background signals, biotin-FOXM1 was omitted, and diffusion-enhanced FRET incubations were done in duplicate on black Molecular Devices 96-well microtiter plates. Five microliter of Fl-NB-72 and 5 μl of the compound solutions were mixed together and then 5 µl of FRET buffer plus SaTb was added, mixed and incubated in the dark at room temperature, for 1 h. The tr-FRET signals measured as above were subtracted as a background from the first incubations that contained biotin-FOXM1. Graphs were prepared using Graph Pad/Prism 4.

[2] = tested on: MDA-MB-231 and MDA-MB-453 breast cancer cells; assay: Cell proliferation in triple negative MDA-MB-231 and MDA-MB-453 cells; assay type: cell-based; conditions: Homo sapiens, read-out: IC50 antiproliferative
Description: WST-1 assay (Roche, Basel, Switzerland) was used to quantify cell viability as described.[38] Absorbance was measured at 450 nm using a VICTOR X5 PerkinElmer 2030 Multilabel Plate Reader. All assays were performed in triplicate and analyzed using Graph Pad Prism 8.0.

[3] = molecular target: T1, FOXM1; assay: Cellular FOXM1 protein level by Western blot; assay type: cell-based; parameters: endogenous in cells; host or cells: MDA-MB-231, MCF7; conditions: MDA-MB-231 or MCF7 cells over time; NB-55 5/8 µM, NB-73 1.5/4 µM, NB-115 4 µM, FDI-6 8 µM
Description: For Western blot analysis, whole-cell extracts were prepared using 1X RIPA lysis buffer (Thermo Fisher) supplemented with 1X protease inhibitor cocktail (Millipore Sigma). […] In some cases, treatments with compound were done in the presence of the proteasome inhibitor MG132 (Calbiochem) as described in the figure legend. […] Band intensities were analyzed with Licor Odyssey 2.1 software. All blots shown together derive from the same experiment and were processed in parallel. Full uncropped images of blots are shown as supplementary figures in the Supplementary Information file. Molecular weight markers were Rainbow markers from GE Healthcare (38–225 kDa) or Precision Plus Dual Color Markers from Biorad (37–250 kDa).

[4] = tested on: MCF7 cells; assay: RNA-Seq gene regulation in MCF7 cells; assay type: cell-based, human
Description: For gene expression analysis, total RNA was extracted from cells using Trizol reagent and further cleaned using the Turbo DNase and RNAqueous kits (ThermoFisher). Cells were treated with Veh (0.1% EtOH), or with the compounds indicated for 9 h or 24 h. Once the sample quality and replicate reproducibility were verified, samples from each group were subjected to sequencing. RNA at a concentration of 100 ng/µl in nuclease-free water was used for library construction. cDNA libraries were prepared with the mRNA-TruSeq Kit (Illumina, Inc.). In brief, the poly-A containing mRNA was purified from total RNA, the RNA was fragmented, double-stranded cDNA was generated from fragmented RNA, and adapters were ligated to the ends.
The paired-end read data from the HiSeq 4000 were processed and analyzed through a series of steps. Base calling and de-multiplexing of samples within each lane were done with Casava 1.8.2. The RNA sequences were prepared with Illumina’s TruSeq Stranded mRNAseq Sample Prep kit. Reads were trimmed of adapters and low expression data using Trimmomatic version 0.38.[42] The STAR alignment tool version 2.5.3a was used to align the sequenced reads to the GRCh37 human genome from Ensembl.[43] Gene counts were calculated using subread version 1.5.2.[44],[45] The edgeR Bioconductor package in R was used for normalization and differential expression analysis. Default normalization methods were used, specifically trimmed mean of M values or TMM was used to calculate the normalized expression values. This method calculates the weighted trimmed mean of the log expression ratios in a gene-wise fashion.[46],[47] We considered genes with fold-change > 2 and p-value < 0.05 as statistically significant, differentially expressed.

Question: Clc1ccc(C(=C2C3CC4CC(C3)CC2C4)c2ccc(OCCCCCCN3CCCC3)cc2)cc1 [NB-55] was tested. Which IC50 [1] did it give?
Answer: 1.24 µM

Question: And the IC50 [2]?
Answer: 3 to 5 µM

Question: And the “intracellular level of FOXM1” value [3]?
Answer: reduced the intracellular level of FOXM1

Question: What about the “genes regulated that overlapped with NB-73 regulated genes” value ([4]; MCF7, 9 h, more than 2-fold, FDR < 0.05) of the same compound?
Answer: 72%

Question: What about the “genes regulated more than 2-fold (Venn diagram)” value ([4]; MCF7, 9 h treatment, p < 0.05, FDI-6 20 µM) of the same compound?
Answer: 567 genes
